Earlier results in patent US20250302745A1, “COMPOSITIONS COMPRISING VANCOMYCIN” (Arecor Limited, priority 2022, published 2025).

System: animal
Conditions: excipients of VancoReady; black box warning

finding in animal reproductive studies | Compound
cause fetal malformations | PEG400
cause fetal malformations | CC(=O)N[C@H](C)C(=O)O [N-acetyl-D-alanine]
